Laboratory results reported in ChEMBL document CHEMBL1201862, “PubChem BioAssay data set” (2004).
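Method: 48-hour compound exposure of cells in 96-well plates, five concentrations, linear interpolation of endpoints. GI50: concentration for 50% inhibition of growth.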 Calls of active or inactive are those of the source. Cut-off read from the data, not from the text of the source: active = GI50 up to about 1.1 µM and inactive = higher.

Key:
Assay in all cases: DTP human tumour cell line panel, 48 h
[1] = test system: MDA-MB-435
[2] = test system: HT-29
[3] = test system: SK-MEL-5
[4] = test system: Hs-578T
[5] = test system: OVCAR-3
[6] = test system: SN12C
[7] = test system: A498
[8] = test system: MDA-MB-231
[9] = test system: M14
[10] = test system: A549
[11] = test system: NCI-H23
[12] = test system: RXF 393
[13] = test system: DMS-114
[14] = test system: XF498
[15] = test system: KM-20L2
[16] = test system: DMS-273
[17] = test system: DLD-1
[18] = test system: SNB-78
[19] = test system: HOP-18
[20] = test system: DU-145

| SMILES | GI50 [1] | GI50 [2] | GI50 [3] | GI50 [4] | GI50 [5] | GI50 [6] | GI50 [7] | GI50 [8] | GI50 [9] | GI50 [10] | GI50 [11] | GI50 [12] | GI50 [13] | GI50 [14] | GI50 [15] | GI50 [16] | GI50 [17] | GI50 [18] | GI50 [19] | GI50 [20] |
| --- | --- | --- | --- | --- | --- | --- | --- | --- | --- | --- | --- | --- | --- | --- | --- | --- | --- | --- | --- | --- |
| Cc1cc(N(CCOS(C)(=O)=O)CCOS(C)(=O)=O)ccc1C=O | 11.5 µM (inactive) | 4.49 µM (inactive) | 7.78 µM (inactive) | 18.5 µM (inactive) | 6.19 µM (inactive) | 1.47 µM (inactive) | 1.85 µM (inactive) | 28.5 µM (inactive) | 3.05 µM (inactive) | 0.979 µM (active) | 3.68 µM (inactive) | – | – | – | – | – | – | – | – | – |
| O=C(NN1C(=O)C(Cl)C1c1ccc([N+](=O)[O-])cc1)c1ccccc1O (stereo unspecified) | – | > 100 µM (inactive) | > 100 µM (inactive) | – | > 100 µM (inactive) | > 100 µM (inactive) | – | – | > 100 µM (inactive) | > 100 µM (inactive) | > 100 µM (inactive) | > 100 µM (inactive) | > 100 µM (inactive) | 93.1 µM (inactive) | > 100 µM (inactive) | – | – | – | – | – |
| CC(=O)NNc1nc(C)c(C(=O)NNC(=O)C(=O)Nc2ccc([N+](=O)[O-])cc2[N+](=O)[O-])s1 | – | 55.3 µM (inactive) | > 100 µM (inactive) | – | – | > 100 µM (inactive) | > 100 µM (inactive) | – | > 100 µM (inactive) | 68.9 µM (inactive) | > 100 µM (inactive) | 80.4 µM (inactive) | 30.1 µM (inactive) | > 100 µM (inactive) | > 100 µM (inactive) | > 100 µM (inactive) | > 100 µM (inactive) | > 100 µM (inactive) | – | – |
| COc1cccc2c1C(=O)c1c(O)c3c(c(O)c1C2=O)CC(O)(C(=O)CO)CC3OC1CC(N)C(I)C(C)O1 (stereo unspecified) | – | 3.15 µM (inactive) | 2.64 µM (inactive) | – | > 33.4 µM (inactive) | 2.38 µM (inactive) | 3.53 µM (inactive) | – | – | 0.736 µM (active) | 2.28 µM (inactive) | 2.44 µM (inactive) | 1.63 µM (inactive) | 6.64 µM (inactive) | 7.18 µM (inactive) | 0.424 µM (active) | 2.54 µM (inactive) | 25.7 µM (inactive) | 7.96 µM (inactive) | – |
| CCOC(=O)C1=C(C)N(c2ccc(OC)cc2)C2(O)C=CC(O)=C3C(=O)c4ccccc4C(=O)C312 (stereo unspecified) | 4.2 µM (inactive) | 17.9 µM (inactive) | 11.4 µM (inactive) | 5.47 µM (inactive) | 3.06 µM (inactive) | 14.8 µM (inactive) | 10.5 µM (inactive) | 14.3 µM (inactive) | 9.75 µM (inactive) | 11.1 µM (inactive) | 16.1 µM (inactive) | – | – | – | – | – | – | – | – | 14.4 µM (inactive) |
| CC1(c2sccc2Cl)CC(c2sccc2Cl)=C(C#N)C(=C(C#N)C#N)N1 (stereo unspecified) | 22 µM (inactive) | 24 µM (inactive) | 18.5 µM (inactive) | 21.5 µM (inactive) | 14.9 µM (inactive) | 20.2 µM (inactive) | 18 µM (inactive) | 21.9 µM (inactive) | 18.6 µM (inactive) | 24.7 µM (inactive) | 17.9 µM (inactive) | 16.4 µM (inactive) | – | – | – | – | – | – | – | 16 µM (inactive) |
| S=CN1CCCCC1 | > 100 µM (inactive) | > 100 µM (inactive) | > 100 µM (inactive) | > 100 µM (inactive) | > 100 µM (inactive) | > 100 µM (inactive) | > 100 µM (inactive) | > 100 µM (inactive) | > 100 µM (inactive) | > 100 µM (inactive) | > 100 µM (inactive) | – | – | – | – | – | – | – | – | > 100 µM (inactive) |
| N#C/C(=C\NC(=S)Nc1ccc(S(=O)(=O)Nc2ccccn2)cc1)C(N)=O | > 100 µM (inactive) | > 100 µM (inactive) | > 100 µM (inactive) | > 100 µM (inactive) | > 100 µM (inactive) | > 100 µM (inactive) | > 100 µM (inactive) | > 100 µM (inactive) | > 100 µM (inactive) | > 100 µM (inactive) | 80.2 µM (inactive) | > 100 µM (inactive) | – | – | – | – | – | – | – | > 100 µM (inactive) |
| Nc1nc2cc(COc3ccc(C(=O)O)cc3)ccc2nc1-c1ccccc1 | > 10 µM (inactive) | > 10 µM (inactive) | > 10 µM (inactive) | > 10 µM (inactive) | > 10 µM (inactive) | > 10 µM (inactive) | – | > 10 µM (inactive) | > 10 µM (inactive) | > 10 µM (inactive) | > 10 µM (inactive) | > 10 µM (inactive) | – | – | – | – | – | – | – | > 10 µM (inactive) |
| CC(=O)NC(c1nc2cc(C)c(C)cc2[nH]1)c1nc2cc(C)c(C)cc2[nH]1 | 17.7 µM (inactive) | 15.2 µM (inactive) | 15.2 µM (inactive) | 36.8 µM (inactive) | 13.9 µM (inactive) | 15.9 µM (inactive) | 17.9 µM (inactive) | 26.1 µM (inactive) | 25.4 µM (inactive) | 21.3 µM (inactive) | 32.2 µM (inactive) | 26.3 µM (inactive) | – | – | – | – | – | – | – | 20.2 µM (inactive) |
